Test results from patent US20100286603A1, “KIT AND METHOD FOR PREPARATION OF A DEGARELIX SOLUTION” (priority 2009, published 2010).
Where a SMILES comes first, the peptide text is derived from it. [ ]: non-standard residue; d: D form. The star is where a group is joined. dPhe(4-NHCONH2) = NC(=O)Nc1ccc(C[C@@H](N)C(=O)O)cc1; Dihydroorotyl(S) = O=C1C[C@@H](C(=O)*)NC(=O)N1; dPhe(4-Cl) = N[C@H](Cc1ccc(Cl)cc1)C(=O)O; Phe(4-NH2) = Nc1ccc(C[C@H](N)C(=O)O)cc1; d2Nal = N[C@H](Cc1ccc2ccccc2c1)C(=O)O; Lys(iPr) = CC(C)NCCCC[C@H](N)C(=O)O; d3Pal = N[C@H](Cc1cccnc1)C(=O)O

What was measured:
[1] = Reconstitution of lyophilised Degarelix with water for injection, swirled by hand (laboratory testing); assay type: physicochemical
Description: The WFI in the syringe is then transferred into the Degarelix vial (I) and the assembly of vial, needle, and syringe is swirled by hand to ensure that the lyophilised Degarelix has completely gone into solution. […] In laboratory testing, the reconstitution times for hand swirled Degarelix solutions comprising 80 mg and 120 mg of lyophilised Degarelix are about 5 minutes and 7 minutes respectively. The slowest reconstitution times are considerably greater, however, and can be up to 15 minutes. To ensure that the Degarelix drug product has been fully reconstituted, the care-provider is required to swirl the assembly, by hand, for a period of up to 15 minutes. To assess whether the drug has been reconstituted, the care-provider periodically checks the vial to determine whether the solution is completely clear or not.

[2] = Reconstitution of lyophilised Degarelix with water for injection using an automatic swirling machine (laboratory tests); assay type: physicochemical; conditions: tested for the 80 mg and 120 mg doses
Description: For example, laboratory tests have shown that average reconstitution times when an automatic swirling machine is used are in the region of 0.8 minutes and the slowest times for reconstitution are in the region of 1.25 to 1.5 minutes (tested for the 80 mg and 120 mg doses). This compares well with the present system of swirling by hand, where the slowest times for reconstitution are near to 15 minutes. An automatic mixing apparatus may enable a reconstitution protocol to be formulated in which the Degarelix and WFI are mixed for a relatively short period of time, after which the Degarelix should in the vast majority of cases have gone into solution, as compared with mixing by hand. It is contemplated that the care-provider may check the clarity of the solution after it has been reconstituted with the automatic mixing apparatus and, if fully reconstituted, administer the solution to the patient.

testosterone = conditions: used in a clinical preparation; cited from earlier work

In the case of `CC(=O)N[C@H](Cc1ccc2ccccc2c1)C(=O)N[C@H](Cc1ccc(Cl)cc1)C(=O)N[C@H](Cc1cccnc1)C(=O)N[C@@H](CO)C(=O)N[C@@H](Cc1ccc(NC(=O)[C@@H]2CC(=O)NC(=O)N2)cc1)C(=O)N[C@H](Cc1ccc(NC(N)=O)cc1)C(=O)N[C@@H](CC(C)C)C(=O)N[C@@H](CCCCNC(C)C)C(=O)N1CCC[C@H]1C(=O)N[C@H](C)C(N)=O` [Degarelix] (Ac-[d2Nal][dPhe(4-Cl)][d3Pal]S[Phe(4-NH2)](Dihydroorotyl(S))[dPhe(4-NHCONH2)]L[Lys(iPr)]P[dA]-NH2), the reconstitution time ([1]; 80 mg of lyophilised Degarelix) was “about 5 minutes”, the reconstitution time ([1]; 120 mg of lyophilised Degarelix) was about 7 min and the average reconstitution time [2] was about 0.8 min. For the same compound, the levels of testosterone (testosterone) was “reduction in levels of testosterone”.
